For orientation: IC50 means the concentration that inhibits the measured activity by half.

In test [1] the target is human TOR (FLAG-TOR) (Homo sapiens, UniProt P42345). Briefly: mTOR enzyme assay (DELFIA format, purified enzyme). The test is classed as biochemical. The conditions noted are these: 800 ng/ml FLAG-TOR, 100 μM ATP, 1.25 μM His6-S6K; read-out: mTOR Kinase IC50.
Test [2] concerns LNCap prostate tumor cells. Briefly: In vitro cell growth assay (MTS), LNCap. It counts as cell-based, human. The settings on record: three days after drug treatment. Here is the method:
(§1) Cell lines used were human adenocarcinoma (LoVo), […], prostate (LNCap), breast (MDA468, MCF7), colon (HCT116), renal (HTB44 A498), and ovarian (OVCAR3) tumor cell lines. The tumor cells were plated in 96-well culture plates at approximately 3000 cells per well. One day following plating, various concentrations of inhibitors in DMSO were added to cells (final DMSO concentration in cell assays was 0.25%). Three days after drug treatment, viable cell densities were determined by cell mediated metabolic conversion of the dye MTS, a well-established indicator of cell proliferation in vitro. Cell growth assays were performed using kits purchased from Promega Corporation (Madison, Wis.), following the protocol provided by the vendor. Measuring absorbance at 490 nm generated MTS assay results. Compound effect on cell proliferation was assessed relative to untreated control cell growth.

The target of test [3] is PI3Kα (Homo sapiens, UniProt P42336). In words: PI3Kα fluorescence polarization assay. The test is classed as biochemical. The conditions noted are these: 20 μM PIP2, 25 μM ATP. The procedure: The reaction buffer was 20 mM HEPES pH7.5, 2 mM MgCl2, 0.05% CHAPS, and 0.01% βME (added fresh). The substrate solution was 40 μM PIP2 (diC8, Echelon, Salt Lake City Utah cat #P-4508, 1 mM in water) and 50 μM ATP in the reaction buffer. Nunc 384-well black polypropylene fluorescent plates were used for PI3K assays. The assay is run by putting 9.5 μl of freshly diluted enzyme in the reaction buffer per well, adding 0.5 μl of diluted drug or DMSO, and mixing. Then 10 μl of the substrate solution is added to each well to start the reaction. A final concentration of 20 μM PIP2 and 25 μM ATP in the reaction was used. Reactions were allowed to proceed for 30-60 minutes at room temperature. After 30-60 minutes, 20 μl of a solution of 10 nM TAMRA detector (Red detector probe-Echelon) and 2.5 uM of GST-murine GRP (1.5 mg/ml in 17% glycerol) was added per well to stop the reaction. The resulting solution was mixed well and allowed to stand for 90-110 minutes before reading plate. Assay Plates were read on Perkin-Elmer Envision plate readers with appropriate filters for Tamra [BODIPY-TMRI(1,3,4,5)P4]. Data obtained were used to calculate enzymatic activity and enzyme inhibition by inhibitor compounds. It is important to keep Red probe solutions dark. This procedure is adapted from Echelon Biosciences Inc procedure for their PI3-Kinase fluorescence polarization activity Assay kit Product number K-1100.
Sequence of PI3Kα (P42336 whole entry, species assumed): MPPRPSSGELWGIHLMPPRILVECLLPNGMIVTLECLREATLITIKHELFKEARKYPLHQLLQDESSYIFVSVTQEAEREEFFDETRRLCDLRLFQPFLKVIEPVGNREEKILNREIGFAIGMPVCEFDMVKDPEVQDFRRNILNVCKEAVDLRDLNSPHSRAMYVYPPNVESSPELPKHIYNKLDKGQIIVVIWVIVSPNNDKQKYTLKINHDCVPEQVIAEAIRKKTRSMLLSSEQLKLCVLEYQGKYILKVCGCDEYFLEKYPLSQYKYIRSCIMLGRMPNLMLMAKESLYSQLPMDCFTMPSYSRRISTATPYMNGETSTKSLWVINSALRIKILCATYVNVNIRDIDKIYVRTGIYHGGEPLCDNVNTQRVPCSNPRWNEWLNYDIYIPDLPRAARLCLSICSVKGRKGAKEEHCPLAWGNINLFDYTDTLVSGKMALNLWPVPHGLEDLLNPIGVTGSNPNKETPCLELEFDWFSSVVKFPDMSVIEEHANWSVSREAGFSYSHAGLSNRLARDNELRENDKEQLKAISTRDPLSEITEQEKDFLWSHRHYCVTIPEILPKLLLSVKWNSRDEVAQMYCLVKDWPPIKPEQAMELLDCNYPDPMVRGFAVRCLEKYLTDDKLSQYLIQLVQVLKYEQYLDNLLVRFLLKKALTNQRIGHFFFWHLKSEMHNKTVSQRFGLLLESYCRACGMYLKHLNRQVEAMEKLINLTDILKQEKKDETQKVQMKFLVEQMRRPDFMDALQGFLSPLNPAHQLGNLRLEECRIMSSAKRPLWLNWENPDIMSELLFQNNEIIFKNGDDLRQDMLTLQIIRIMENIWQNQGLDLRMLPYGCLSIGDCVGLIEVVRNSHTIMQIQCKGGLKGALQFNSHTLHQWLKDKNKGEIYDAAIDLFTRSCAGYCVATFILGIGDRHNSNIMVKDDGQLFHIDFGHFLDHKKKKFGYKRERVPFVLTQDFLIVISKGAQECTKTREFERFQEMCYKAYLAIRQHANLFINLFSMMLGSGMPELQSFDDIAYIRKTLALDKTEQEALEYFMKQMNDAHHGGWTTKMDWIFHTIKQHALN
Sequence of PI3Kα (P27986 whole entry partner, species assumed): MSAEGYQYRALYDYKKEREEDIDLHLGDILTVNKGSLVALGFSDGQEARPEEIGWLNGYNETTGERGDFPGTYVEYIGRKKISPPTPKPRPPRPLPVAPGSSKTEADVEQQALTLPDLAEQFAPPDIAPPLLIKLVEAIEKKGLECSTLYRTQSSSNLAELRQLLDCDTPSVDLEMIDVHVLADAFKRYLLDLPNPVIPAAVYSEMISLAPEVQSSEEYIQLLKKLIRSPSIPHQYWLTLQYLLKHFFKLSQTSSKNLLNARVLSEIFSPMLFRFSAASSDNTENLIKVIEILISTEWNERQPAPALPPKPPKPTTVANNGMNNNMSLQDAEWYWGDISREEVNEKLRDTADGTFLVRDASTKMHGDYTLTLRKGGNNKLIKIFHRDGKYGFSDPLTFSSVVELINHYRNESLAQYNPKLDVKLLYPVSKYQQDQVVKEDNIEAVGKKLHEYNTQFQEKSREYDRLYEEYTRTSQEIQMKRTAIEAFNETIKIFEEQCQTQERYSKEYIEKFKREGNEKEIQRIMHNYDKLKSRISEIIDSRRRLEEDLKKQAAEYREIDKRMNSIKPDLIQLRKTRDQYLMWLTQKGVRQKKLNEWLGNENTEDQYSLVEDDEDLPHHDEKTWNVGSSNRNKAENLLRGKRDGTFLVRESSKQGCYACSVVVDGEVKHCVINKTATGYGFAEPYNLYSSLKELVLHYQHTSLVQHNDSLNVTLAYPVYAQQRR

The test system of test [4] is MDA468 breast tumor cells. In words: In vitro cell growth assay (MTS), MDA468. It counts as cell-based, human. The settings on record: three days after drug treatment. The procedure:
as §1

Consider `O=c1cc(Oc2cccc(-c3ccc(NCCN4CCCC4)cc3)c2)c2ccccc2[nH]1`, for which the IC50 in test [1] is 0.18 µM; in test [2] (Homo sapiens, LNCaP, 72 h), 3.05 µM; in test [3] it was above 10 µM; in test [4] (Homo sapiens, 72 h), 4.5 µM.

On to `Nc1nc(Cl)c(CNc2cccc(Oc3cc(=O)[nH]c4ccccc34)c2)c(Cl)n1`, for which the IC50 is 0.17 µM in test [1]; 5.2 µM in test [2] (Homo sapiens, LNCaP, 72 h); above 10 µM in test [3]; 3.5 µM in test [4] (Homo sapiens, 72 h).

Turning to `COc1ncc(-c2cccc(Oc3cc(=O)[nH]c4ccccc34)c2)c(OC)n1`, the IC50 in test [1] is 0.28 µM; in test [2] (Homo sapiens, LNCaP, 72 h), above 60 µM; in test [3], above 10 µM; in test [4] (Homo sapiens, 72 h) it was 38 µM.

Take `CC(C)(C)OC(=O)NC1(CNc2cccc(Oc3cc(=O)[nH]c4ccccc34)c2)CCCC1`: the IC50 was determined as 0.23 µM in test [1]; 4.1 µM in test [2] (Homo sapiens, LNCaP, 72 h); 5.13 µM in test [3]; 8.5 µM in test [4] (Homo sapiens, 72 h).

For `Nc1ccc(-c2ccc(Oc3cc(=O)[nH]c4ccccc34)cc2)cc1`, the IC50 in test [1] was above 20 µM; in test [2] (Homo sapiens, LNCaP, 72 h), 2 µM; in test [3], 0.778 µM; in test [4] (Homo sapiens, 72 h), 60 µM.

Regarding `CN(C)CCCNC(=O)c1cccc(-c2cccc(Oc3cc(=O)[nH]c4ccccc34)c2)c1`, the IC50 in test [1] is 0.5 µM; in test [2] (Homo sapiens, LNCaP, 72 h), 4.3 µM; in test [3], above 10 µM; in test [4] (Homo sapiens, 72 h), 10 µM.

On to `N#C[BH2-][n+]1cccc(CNc2cccc(Oc3cc(=O)[nH]c4ccccc34)c2)c1`, for which the IC50 in test [1] was found to be 0.03 µM; in test [2] (Homo sapiens, LNCaP, 72 h), 2.3 µM; in test [3] it was 7.38 µM; in test [4] (Homo sapiens, 72 h) it was 4.2 µM.

For `O=c1cc(Oc2ccc(-c3cccc(O)c3)cc2)c2ccccc2[nH]1`, the IC50 in test [1] was 0.71 µM; in test [2] (Homo sapiens, LNCaP, 72 h), above 60 µM; in test [3] it was 1.66 µM; in test [4] (Homo sapiens, 72 h), above 60 µM.

`Nc1cccc(-c2cccc(Oc3cc(=O)[nH]c4ccccc34)c2)c1`: the IC50 was found to be 0.17 µM in test [1]; 8 µM in test [2] (Homo sapiens, LNCaP, 72 h); 5.59 µM in test [3]; 30 µM in test [4] (Homo sapiens, 72 h).

With `O=c1cc(Oc2cccc(NCc3cnc4ccccc4c3)c2)c2ccccc2[nH]1`, the IC50 in test [1] is 0.06 µM; in test [2] (Homo sapiens, LNCaP, 72 h) it was above 60 µM; in test [3], above 10 µM; in test [4] (Homo sapiens, 72 h), 60 µM.

Consider `Cc1ccccc1Oc1cc(=O)[nH]c2ccccc12`, for which the IC50 in test [1] was 2 µM; in test [2] (Homo sapiens, LNCaP, 72 h) it was 8 µM; in test [3], 7.91 µM; in test [4] (Homo sapiens, 72 h), above 60 µM.

In the case of `O=c1cc(Oc2cccc(-c3ccc(Cl)nc3)c2)c2ccccc2[nH]1`, the IC50 in test [1] is above 20 µM; in test [2] (Homo sapiens, LNCaP, 72 h) it was above 60 µM; in test [3] it was above 10 µM; in test [4] (Homo sapiens, 72 h), above 60 µM.

Turning to `O=c1cc(Oc2ccccc2Br)c2ccccc2[nH]1`, the IC50 is 0.95 µM in test [1]; 7 µM in test [2] (Homo sapiens, LNCaP, 72 h); 8 µM in test [3]; 40 µM in test [4] (Homo sapiens, 72 h).

On to `O=c1cc(Oc2ccc(OC(F)(F)F)cc2)c2ccccc2[nH]1`, for which the IC50 in test [1] was above 20 µM; in test [2] (Homo sapiens, LNCaP, 72 h), above 60 µM; in test [3], above 10 µM; in test [4] (Homo sapiens, 72 h), above 60 µM.

For the molecule `O=c1cc(Oc2ccc(-c3ccc(F)cc3)cc2)c2ccccc2[nH]1`, the IC50 in test [1] is 15.8 µM; in test [2] (Homo sapiens, LNCaP, 72 h), above 60 µM; in test [3], 9.66 µM; in test [4] (Homo sapiens, 72 h), above 60 µM.

Consider `COC[C@@H]1CCCN1CCNc1ccc(-c2cccc(Oc3cc(=O)[nH]c4ccccc34)c2)cc1`, for which the IC50 in test [1] was found to be 0.13 µM; in test [2] (Homo sapiens, LNCaP, 72 h), 5 µM; in test [3] it was 11 µM.

Turning to `O=c1cc(Oc2ccc(Br)cc2)c2ccccc2[nH]1`, the IC50 in test [1] is 2.2 µM; in test [2] (Homo sapiens, LNCaP, 72 h) it was above 60 µM; in test [3] it was 4.11 µM; in test [4] (Homo sapiens, 72 h) it was 50 µM.

For `O=c1cc(Oc2cccc(-c3cc[nH]n3)c2)c2ccccc2[nH]1`, the IC50 in test [1] was 0.15 µM; in test [2] (Homo sapiens, LNCaP, 72 h), 30 µM; in test [3], 6.67 µM; in test [4] (Homo sapiens, 72 h) it was 60 µM.

Take `O=c1cc(Oc2cccc(NCc3ccsc3)c2)c2ccccc2[nH]1`: the IC50 in test [1] was 0.12 µM; in test [2] (Homo sapiens, LNCaP, 72 h), 35 µM; in test [3], above 10 µM.

For `O=c1cc(Oc2cccc(NCc3cncc(F)c3)c2)c2ccccc2[nH]1`, the IC50 in test [1] was determined as 0.05 µM; in test [2] (Homo sapiens, LNCaP, 72 h), 1.9 µM; in test [3], 8.99 µM; in test [4] (Homo sapiens, 72 h), 7.2 µM.

As to `CC(C)(C)CNc1ncccc1CNc1cccc(Oc2cc(=O)[nH]c3ccccc23)c1`, the IC50 was determined as 0.16 µM in test [1]; 4.2 µM in test [2] (Homo sapiens, LNCaP, 72 h); 10 µM in test [4] (Homo sapiens, 72 h).

For the molecule `O=c1cc(Oc2ccccc2)c2cc(-c3ccncc3)ccc2[nH]1`, the half-inhibitory concentration (IC50) is 60 µM in test [2] (Homo sapiens, LNCaP, 72 h); 3.94 µM in test [3]; 60 µM in test [4] (Homo sapiens, 72 h).

On to `O=c1cc(Oc2ccccn2)c2ccccc2[nH]1` [drawing 389], for which the IC50 in test [1] is 9.7 µM; in test [2] (Homo sapiens, LNCaP, 72 h), above 60 µM; in test [3], 8.74 µM.

`O=c1cc(Oc2ccccc2)c2cc(Br)ccc2[nH]1`: the figures for the IC50 in test [1] and in test [3] were above 20 µM and above 10 µM, respectively.

In the case of `CC(C)(C)OC(=O)Nc1ccc(CNc2cccc(Oc3cc(=O)[nH]c4ccccc34)c2)cn1`, the IC50 in test [1] is 0.42 µM; in test [2] (Homo sapiens, LNCaP, 72 h) it was 12 µM; in test [4] (Homo sapiens, 72 h), 60 µM.

As to `CN1CCN(c2cccc(Oc3cc(=O)[nH]c4ccccc34)c2)CC1` [drawing 359], the IC50 in test [1] was 0.37 µM; in test [2] (Homo sapiens, LNCaP, 72 h), 0.62 µM; in test [3], 10.3 µM.

Turning to `CN1CCC(N(C)c2cccc(-c3cccc(Oc4cc(=O)[nH]c5ccccc45)c3)c2)CC1`, the IC50 in test [1] was determined as 0.33 µM; in test [2] (Homo sapiens, LNCaP, 72 h) it was 3 µM; in test [3], 8.31 µM.

`O=c1cc(Oc2ccccc2)c2cc(-c3ccccc3)ccc2[nH]1`: the IC50 in test [1] came out at 8.2 µM; in test [3], 8.23 µM.

As for `O=c1cc(Oc2cccc(NCc3ccccc3)c2)c2ccccc2[nH]1`, the half-maximal inhibitory concentration (IC50) in test [1] amounted to 0.14 µM; in test [2] (Homo sapiens, LNCaP, 72 h), 6 µM; in test [3], 3.78 µM.

Turning to `O=c1cc(Oc2cccc(NCc3ccc(F)nc3)c2)c2ccccc2[nH]1` [drawing 208], the IC50 in test [2] was found to be 4 µM; in test [3] it was 9.54 µM; in test [4], 11 µM.

`CN(C)CCCN1CCN(c2cccc(Oc3cc(=O)[nH]c4ccccc34)c2)CC1`: the IC50 came out at 0.72 µM in test [1]; 7 µM in test [2] (Homo sapiens, LNCaP, 72 h); 10.5 µM in test [4] (Homo sapiens, 72 h).

For `O=c1cc(Oc2ccccc2)c2ccc(Cl)cc2[nH]1`, the IC50 in test [1] is above 20 µM; in test [3], 0.308 µM.

With `O=c1cc(Oc2cccc(OCc3ccccc3)c2)c2ccccc2[nH]1` [drawing 351], the IC50 was above 60 µM in test [2] (Homo sapiens, LNCaP, 72 h); 4.15 µM in test [3]; above 60 µM in test [4] (Homo sapiens, 72 h).

`CC(=O)Nc1ccc(Oc2cc(=O)[nH]c3ccccc23)cc1`: the IC50 in test [1] stood at 6 µM; in test [3], 7.28 µM.

Regarding `O=c1cc(Oc2cccc(NCc3ccc(F)nc3)c2)c2ccccc2[nH]1` [drawing 218], the results for the IC50 in test [2] and in test [4] were 13 µM and 50 µM, respectively.

Take `Nc1ncccc1CNc1cccc(Oc2cc(=O)[nH]c3ccccc23)c1`: the IC50 in test [1] was 0.07 µM; in test [2] (Homo sapiens, LNCaP, 72 h), 4 µM; in test [3] it was above 10 µM.

Regarding `O=c1cc(Oc2cccc(NCc3ccc(-n4ccnc4)cc3)c2)c2ccccc2[nH]1`, the IC50 in test [1] is 0.08 µM; in test [2] (Homo sapiens, LNCaP, 72 h), 4 µM; in test [3], above 10 µM.

The values above are taken from patent publication US20100068204A1, “4-ARYLOXYQUINOLIN-2(1H)-ONES AS MTOR KINASE AND PI3 KINASE INHIBITORS, FOR USE AS ANTI-CANCER AGENTS” (Wyeth, priority 2008, published 2010).
